According to patent publication US6444670B2 (Wyeth, priority 1998, dated 2002):

What was measured:
[1] = system: rat hepatic microsomal PTPases; conditions: 50 μM compound
[2] = target: T1, Human recombinant PTP1B (hPTP1B) (Homo sapiens, UniProt P18031); format: biochemical
T1 construct: made in house
T1 sequence (P18031 1-435): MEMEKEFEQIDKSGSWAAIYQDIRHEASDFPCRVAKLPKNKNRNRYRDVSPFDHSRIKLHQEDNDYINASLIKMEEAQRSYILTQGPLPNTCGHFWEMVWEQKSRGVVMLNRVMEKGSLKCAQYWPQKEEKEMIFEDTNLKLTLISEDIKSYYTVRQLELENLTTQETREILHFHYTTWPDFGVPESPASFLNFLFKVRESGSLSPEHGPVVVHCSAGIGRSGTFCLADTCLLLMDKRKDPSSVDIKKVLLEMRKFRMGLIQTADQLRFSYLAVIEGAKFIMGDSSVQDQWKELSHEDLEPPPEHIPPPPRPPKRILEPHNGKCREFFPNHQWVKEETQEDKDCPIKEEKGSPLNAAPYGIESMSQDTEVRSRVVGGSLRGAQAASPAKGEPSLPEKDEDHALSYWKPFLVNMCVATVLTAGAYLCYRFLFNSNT

[3] = system: diabetic (ob/ob) mice; experiment: Blood glucose lowering in diabetic (ob/ob) mice; format: in vivo, mouse; conditions: plasma glucose, dose 25 mg/Kg, (a) = no significant activity (p < 0.05) at this dose
Excerpt: The procedures used and results obtained are briefly described below.
The non-insulin dependent diabetic (NIDDM) syndrome can be typically characterizes by obesity, hyperglycemia, abnormal insulin secretion, hyperinsulinemia and insulin resistance.
In each test procedure, mice [Male or female ob/ob (C57 B1/6J) and their lean litermates (ob/+ or +/+, Jackson Laboratories) ages 2 to 5 months (10 to 65 g)] of a similar age were randomized according to body weight into 4 groups of 10 mice. The mice were housed 5 per cage and are maintained on normal rodent chow with water ad libitum. Mice received test compound daily by gavage (suspended in 0.5 ml of 0.5% methyl cellulose); dissolved in the drinking water; or admixed in the diet. The dose of compounds given ranges from 2.5 to 200 mg/kg body weight/day. The dose is calculated based on the fed weekly body weight and is expressed as active moiety. […] Control mice received vehicle only.
On the morning of Day 4, 7 or 14 two drops of blood (approximetly 50 ul) were collected into sodium fluoride containing tubes either from the tail vein or after decapitation. For those studies in which the compound was administered daily by gavage the blood samples were collected 0 and 4 hours after compound administration. The plasma was isolated by centrifugation and the concentration of glucose is measured enzymatically on an Abbott V. P. Analyzer.
For each mouse, the percentage change in plasma glucose on Day 4, 7 or 14 is calculated relative to the mean plasma glucose of the vehicle treated mice. Analysis of variance followed by Dunett's Comparison Test (one-tailed) are used to estimate the significant difference between the plasma glucose values from the control group and the individual compound treated groups (CMS SAS Release 5.18).

Structure (SMILES) | melting point | % Change from Control [1] | IC50 [2] | % Change Glucose from Vehicle [3]
Cc1sc2c(Br)c3ccccc3c(-c3cc(Br)c(O)c(Br)c3)c2c1C [Example 9, 2,6-Dibromo-4-(9-bromo-2,3-dimethyl-naphtho[2,3-b]thiophen-4-yl)-phenol] | 172 to 174 °C | −49.80% | 539 nM | –
Cc1c(CN2CCOCC2)sc2c(Br)c3ccccc3c(-c3cc(Br)c(O)c(Br)c3)c12 [Example 19, 2,6-Dibromo-4-(9-bromo-3-methyl-2-morpholin-4-ylmethyl-naphtho[2,3-b]thiophen-4-yl)-phenol] | 237 to 240 °C | −30.40% | 697 nM | –
Cc1sc2c(Br)c3ccccc3c(-c3ccc(O)c([N+](=O)[O-])c3)c2c1C [Example 20, 4-(9-Bromo-2,3-dimethyl-naphtho[2,3-b]thiophen-4-yl)-2-nitro-phenol] | 183 to 185 °C | 2.13% | – | –
Cc1sc2c(Br)c3ccccc3c(-c3cc(Br)c(O)c([N+](=O)[O-])c3)c2c1C [Example 21, 2-Bromo-4-(9-bromo-2,3-dimethyl-naphtho[2,3-b]thiophen-4-yl)-6-nitro-phenol] | 129 to 130 °C | −63.12% | 381 nM | –
Cc1sc2c(Br)c3ccccc3c(-c3ccc(O)c(N)c3)c2c1C [Example 22, 2-Amino-4-(9-bromo-2,3-dimethyl-naphtho[2,3-b]thiophen-4-yl)-phenol] | 173 to 175 °C | −28.57% | – | –
Cc1sc2c(Br)c3ccccc3c(-c3cc(Br)c(O[C@H](C)C(=O)O)c(Br)c3)c2c1C [Example 30, (R)-2-[2,6-Dibromo-4-(9-bromo-2,3-dimethylnaptho[2,3-b]thien-4-yl)-phenoxy]-propanoic acid] | 224 to 225 °C | −60.32% | 869 nM | –
Cc1sc2c(Br)c3ccccc3c(-c3cc(Br)c(O[C@@H](CCc4ccccc4)C(=O)O)c(Br)c3)c2c1C [Example 31, (S)-2-[2,6-Dibromo-4-(9-bromo-2,3-dimethyl-naphtho[2,3-b]thiophen-4-yl)-phenoxy]-4-phenyl-butyric acid] | 176 to 177 °C | −63.42% | 49 nM | –
Cc1sc2c(Br)c3ccccc3c(-c3cc(Br)c(O[C@H](Cc4ccccc4)C(=O)O)c(C4CCCC4)c3)c2c1C [Example 48] | 167 to 168.5 °C | −44.69% | 83 nM | −20.1 ^ %
Cc1sc2c(Br)c3ccccc3c(-c3cc(C(C)C)c(OCC(=O)O)c(C(C)C)c3)c2c1C [Example 53, [4-(9-Bromo-2,3-dimethyl-naphtho[2,3-b]thiophen-4-yl)-2,6-diisopropyl-phenoxy]-acetic acid] | 228 to 231 °C | −81.83% | 204 nM | –
Cc1sc2c(Br)c3ccccc3c(-c3cc(Br)c(O)c(NC(=O)OC(C)(C)C)c3)c2c1C [Example 56, [3-Bromo-5-(9-bromo-2,3-dimethyl-naphtho[2,3-b]thiophen-4-yl)-2-hydroxy-phenyl]-carbamic Acid tert-Butyl Ester] | 205 to 207 °C | – | 489 nM | –
COC(=O)CNc1cc(-c2c3ccccc3c(Br)c3sc(C)c(C)c23)cc(Br)c1OC [Example 59, [3-Bromo-5-(9-bromo-2,3-dimethyl-naphtho[2,3-b]thiophen-4-yl)-2-methoxy-phenylamino]-acetic Acid Methyl Ester] | 194 to 198 °C | – | 2200 nM | –
COc1c(Br)cc(-c2c3ccccc3c(Br)c3sc(C)c(C)c23)cc1NCC(=O)O [Example 60, [3-Bromo-5-(9-bromo-2,3-dimethyl-naphtho[2,3-b]thiophen-4-yl)-2-methoxy-phenylamino]-acetic Acid] | > 190 °C (dec.) | – | 1510 nM | –
